The values below come from patent publication US8163766B2, “Beta-secretase modulators and methods of use” (Amgen Inc., priority 2005, dated 2012).

In the experiment the test system is Aβ 40 in conditioned media of cells stably expressing Amyloid Precursor Protein (APP). Description: BACE Cell-Based Assay (Aβ40 in conditioned medium, sandwich ELISA). To be noted: 24 hours of incubation with the test compounds, Aβ 40 by sandwich ELISA, read-out: IC50 values in the cell-based assay (inhibition of Aβ 40). The procedure:
The cell-based assay measures inhibition or reduction of Aβ40 in conditioned medium of test compound treated cells, which express amyloid precursor protein.
Cells stably expressing Amyloid Precursor Protein (APP) were plated at a density of 40K cells/well in 96 well plates (Costar). The cells were cultivated for 24 h at 37° C. and 5% CO2 in DMEM supplemented with 10% FBS. The test compounds were then added to cells in 10-point dose response concentrations with the starting concentration being either 100 μM or 10 μM. The compounds were diluted from stock solutions in DMSO and the final DMSO concentration of the test compounds on cells was 0.1%. After 24 hours of incubation with the test compounds the supernatant conditioned media was collected and the Aβ 40 levels were determined using a sandwich ELISA. The IC50 of the compound was calculated from the percent of control or percent inhibition of Aβ 40 as a function of the concentration of the test compound.
The sandwich ELISA to detect Aβ 40 was performed in 96 well microtiter plates, which were pre-treated with goat anti-rabbit IgG (Pierce). The capture and detecting antibody pair that were used to detect Aβ 40 from cell supernatants were affinity purified pAb40 (Biosource) and biotinylated 6E10 (Signet Labs Inc.), respectively. The optimal concentration for the pAb40 antibody was 3 μg/ml in Superblock/TBS (Pierce) that was supplemented with 0.05% Tween 20 (Sigma). Optimal concentration for the detection antibody 6E10-biotinylated was […] in Superblock/TBS (Pierce) that had been supplemented with 2% normal goat serum and 2% normal mouse serum.
Cellular supernatants were incubated with the capture antibody for 3 h at 4° C., followed by 3 wash steps in TBS-tween (0.05%). The detecting antibody incubation was for 2 h at 4° C., again followed by the wash steps as described previously. The final readout of the ELISA is Time-Resolved Fluorescence (counts per minute) using Delfia reagents Streptavidin-Europium and Enhancement solutions (Perkin Elmer) and the Victor 2 multilabel counter (Perkin Elmer).
On to `CC(C)c1ccc2c(c1)[C@@H](NC[C@@H](O)[C@H](Cc1ccccc1)NC(=O)c1cc(N3CCCC3=O)c(=O)n(C3CCCC3)c1)CC1(CCCC1)O2` [Example 137, 1-cyclopentyl-N-((2S,3R)-4-((S)-2,2-spirocyclopentyl-6-iso-propylchroman-4-ylamino)-3-hydroxy-1-phenylbutan-2-yl)-6-oxo-5-(2-oxopyrrolidin-1-yl)-1,6-dihydropyridine-3-carboxamide], for which the IC50 was not above 5 µM. The value for `CC(C)c1ccc2c(c1)[C@@H](NC[C@@H](O)[C@H](Cc1ccccc1)NC(=O)c1ccc(=O)n(C3CCCC3)c1)CC1(CCCC1)O2` [Example 138, 1-cyclopentyl-N-((2S,3R)-4-((S)-2,2-spirocyclopentyl-6-iso-propylchroman-4-ylamino)-3-hydroxy-1-phenylbutan-2-yl)-6-oxo-1,6-dihydropyridine-3-carb oxamide] was not above 5 µM; that for `CCc1ccc2c(c1)[C@@H](NC[C@@H](O)[C@H](Cc1ccccc1)NC(=O)c1cc(N3CCCC3=O)c(=O)n(C3CCCC3)c1)CC1(CCCC1C)O2` (stereo partly drawn) [Example 140, 1-cyclopentyl-N-((2S,3R)-4-((S)-6-ethyl-2,2-(-methyl)-spirocyclopentylchroman-4-ylamino)-3-hydroxy-1-phenylbutan-2-yl)-6-oxo-5-(2-oxopyrrolidin-1-yl)-1,6-dihydropyridine-3-carboxamide] was not above 5 µM; that for `CCc1ccc2c(c1)[C@@H](NC[C@@H](O)[C@H](Cc1ccccc1)NC(=O)c1ccc(=O)n(C3CCCC3)c1)CC1(CCCC1C)O2` (stereo partly drawn) [Example 141, 1-cyclopentyl-N-((2S,3R)-4-((S)-6-ethyl-2,2-(-methyl)-spirocyclopentylchroman-4-ylamino)-3-hydroxy-1-phenylbutan-2-yl)-6-oxo-1,6-dihydropyridine-3-carboxamide] was not above 5 µM. As for `CCc1ccc2c(c1)[C@@H](NC[C@@H](O)[C@H](Cc1ccccc1)NC(=O)c1nn(-c3ccccc3)c(=O)cc1Cl)CC1(CCCC1)O2` [Example 142, 4-chloro-N-((2S,3R)-4-((S)-6-ethyl-2,2-spirocyclopentylchroman-4-ylamino)-3-hydroxy-1-phenylbutan-2-yl)-6-oxo-1-phenyl-1,6-dihydropyridazine-3-carboxamide], the IC50 was not above 5 µM.

As to `CC(C)c1ccc2c(c1)[C@@H](NC[C@@H](O)[C@H](Cc1ccccc1)NC(=O)c1nn(-c3ccccc3)c(=O)cc1Cl)CC1(CCCC1)O2` [Example 144, 4-chloro-N-((2S,3R)-3-hydroxy-4-((S)-6-isopropyl-2,2-spirocyclopentylchroman-4-ylamino)-1-phenylbutan-2-yl)-6-oxo-1-phenyl-1,6-dihydropyridazine-3-carb oxamide], the half-maximal inhibitory concentration (IC50) is not above 5 µM. The value for `CCc1ccc2c(c1)[C@@H](NC[C@@H](O)[C@H](Cc1ccccc1)NC(=O)c1ccc(=O)n(-c3ccccc3)n1)CC1(CCC1)O2` [Example 146, N-((2S,3R)-4-((S)-6-ethyl-2,2-spirocyclobutylchroman-4-ylamino)-3-hydroxy-1-phenylbutan-2-yl)-6-oxo-1-phenyl-1,6-dihydropyridazine-3-carboxamide] was not above 5 µM; that for `CCc1ccc2c(c1)[C@@H](NC[C@@H](O)[C@H](Cc1ccccc1)NC(=O)c1nn(-c3ccccc3)c(=O)cc1Cl)CC1(CCC1)O2` [Example 147, 4-chloro-N-((2S,3R)-4-((S)-6-ethyl-2,2-spirocyclobutylchroman-4-ylamino)-3-hydroxy-1-phenylbutan-2-yl)-6-oxo-1-phenyl-1,6-dihydropyridazine-3-carboxamide] was not above 5 µM.

In the case of `O=C(N[C@@H](Cc1ccccc1)[C@H](O)CN[C@H]1CC2(CCCC2)Oc2ccccc21)c1cc(N2CCCC2=O)c(=O)n(C2CCCC2)c1` [Example 148, 1-cyclopentyl-N-((2S,3R)-4-((S)-2,2-spirocyclopentylchroman-4-ylamino)-3-hydroxy-1-phenylbutan-2-yl)-6-oxo-5-(2-oxopyrrolidin-1-yl)-1,6-dihydropyridine-3-carboxamide], the IC50 was not above 5 µM.

As to `O=C(N[C@@H](Cc1ccccc1)[C@H](O)CN[C@H]1CC2(CCCC2)Oc2ccccc21)c1ccc(=O)n(C2CCCC2)c1` [Example 149, 1-cyclopentyl-N-((2S,3R)-4-((S)-2,2-spirocyclopentylchroman-4-ylamino)-3-hydroxy-1-phenylbutan-2-yl)-6-oxo-1,6-dihydropyridine-3-carboxamide], the concentration for half-maximal inhibition (IC50) was not above 5 µM. Next, `O=C(N[C@@H](Cc1ccccc1)[C@H](O)CN[C@H]1CC2(CCCC2)Oc2ccccc21)c1cc(-c2ccccn2)c(=O)n(C2CCCC2)c1` [Example 150, 1-cyclopentyl-N-((2S,3R)-4-((S)-2,2-spirocyclopentylchroman-4-ylamino)-3-hydroxy-1-phenylbutan-2-yl)-6-oxo-5-(pyridin-2-yl)-1,6-dihydropyridine-3-carboxamide]: not above 5 µM. For `CCc1ccc2c(c1)[C@@H](NC[C@@H](O)[C@H](Cc1ccccc1)NC(=O)c1ccc(=O)n(C3CCCC3)n1)CC1(CCC1)O2` [Example 151, 1-cyclopentyl-N-((2S,3R)-4-((S)-6-ethyl-2,2-spirocyclo-butylchroman-4-ylamino)-3-hydroxy-1-phenylbutan-2-yl)-6-oxo-1,6-dihydropyridazine-3-carboxamide], the IC50 is not above 5 µM.

For the molecule `O=C(N[C@@H](Cc1ccccc1)[C@H](O)CN[C@H]1CC2(CCC2)Oc2ccccc21)c1cc(N2CCCC2=O)c(=O)n(C2CCCC2)c1` [Example 152, 1-cyclopentyl-N-((2S,3R)-4-((S)-2,2-spirocyclobutylchroman-4-ylamino)-3-hydroxy-1-phenylbutan-2-yl)-6-oxo-5-(2-oxopyrrolidin-1-yl)-1,6-dihydropyridine-3-carboxamide], the IC50 is not above 5 µM.

`O=C(N[C@@H](Cc1ccccc1)[C@H](O)CN[C@H]1CC2(CCC2)Oc2ccccc21)c1ccc(=O)n(C2CCCC2)c1` [Example 153, 1-cyclopentyl-N-((2S,3R)-4-((S)-2,2-spirocyclobutylchroman-4-ylamino)-3-hydroxy-1-phenylbutan-2-yl)-6-oxo-1,6-dihydropyridine-3-carboxamide]: the IC50 was not above 5 µM. Next, `CCc1ccc2c(c1)[C@@H](NC[C@@H](O)[C@H](Cc1ccccc1)NC(=O)c1cn(C3CCCC3)c(=O)c3ccccc13)CC1(CCCC1)O2` [Example 158, 2-cyclopentyl-N-((2S,3R)-4-((S)-6-ethyl-2,2-spirocyclopentylchroman-4-ylamino)-3-hydroxy-1-phenylbutan-2-yl)-1-oxo-1,2-dihydroisoquinoline-4-carboxamide]: not above 5 µM. As to `CCc1ccc2c(c1)[C@@H](NC[C@@H](O)[C@H](Cc1ccccc1)NC(=O)c1cc(-c3ccccc3F)c(=O)n3c1CCC3C)CC1(CCCC1)O2` (some centres unmarked) [Example 159], the half-inhibitory concentration (IC50) is not above 5 µM.

With `CCc1ccc2c(c1)[C@@H](NC[C@@H](O)[C@H](Cc1ccccc1)NC(=O)c1ccc(=O)n(C3CCCCC3)c1)CC1(CCCC1)O2` [Example 160], the IC50 is not above 5 µM. The value for `CCc1ccc2c(c1)[C@@H](NC[C@@H](O)[C@H](Cc1ccccc1)NC(=O)c1ccc(=O)n(C3CCCC(C)C3)c1)CC1(CCCC1)O2` (some centres unmarked) [Example 161] was not above 5 µM; that for `CCc1ccc2c(c1)[C@@H](NC[C@@H](O)[C@H](Cc1ccccc1)NC(=O)c1cn(C3CCCC3)c(=O)c3ccccc13)CC1(CCC1)O2` [Example 162] was not above 5 µM. The value for `CCc1ccc2c(c1)[C@@H](NC[C@@H](O)[C@H](Cc1ccccc1)NC(=O)c1ccc(=O)n(C3CCCC3)c1)CC(C)(C)O2` [Example 163] was not above 5 µM; that for `CCc1ccc2c(c1)C(NC[C@@H](O)[C@H](Cc1ccccc1)NC(=O)c1cc(-c3ccccn3)c(=O)n(C3CCCC3)c1)CC1(CCC1)O2` (stereo partly drawn) [Example 164, 1-Cyclopentyl-N-((2S,3R)-4-((S)-6-ethyl-2,2-spirocyclobutylchroman-4-ylamino)-3-hydroxy-1-phenylbutan-2-yl)-6-oxo-5-(pyridin-2-yl)-1,6-dihydropyridine-3-carboxamide] was not above 5 µM; that for `CCc1ccc2c(c1)[C@H](NC[C@@H](O)[C@H](Cc1ccccc1)NC(=O)c1cc(-c3ccccn3)c(=O)n(C(C)C)c1)CC1(CCCC1)O2` [Example 165, N-((2S,3R)-4((R)-6-ethyl-2,2-spirocyclopentylchroman-4-ylamino)-3-hydroxy-1-phenylbutan-2-yl)-1-isopropyl-6-oxo-5-(pyridin-2-yl)-1,6-dihydropyridine-3-carboxamide] was not above 5 µM. Next, `O=C(N[C@@H](Cc1ccccc1)[C@H](O)CN[C@H]1CC2(CCC2)Nc2ccc(Br)cc21)c1cc(-c2ccccn2)c(=O)n(C2CCCC2)c1` [Example 471, N-((1S,2R)-3-(((4′S)-6′-bromo-3′,4′-dihydro-1′H-spiro[cyclobutane-1,2′-quinolin]-4′-yl)amino)-2-hydroxy-1-(phenylmethyl)propyl)-1′-cyclopentyl-2′-oxo-1′,2′-dihydro-2,3′-bipyridine-5′-carboxamide]: not above 5 µM.

What is called IC50 is the concentration needed to halve the response being measured.
